The nature of data set [1]: H+/Na+ transport assay of bead-derived peptides (one-point).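 Further: relative to parent gramicidin A activity set to 1.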 It counts as biochemical. Further details: key: relative activity; mean of two control wells = 1.00. The note with it: bead-derived peptide solution, EYPC/EYPG LUVs. The method in brief:
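One-point screen: peptide + pyranine-loaded LUVs, 30 min RT with vortexing, 96-well. Read-out is fluorescence intensity scaled as 100 × (Ix – I0)/(Imax – I0). Imax from Triton X-100, I0 from untreated vesicles, and the mean of the two control wells is set to 1.00.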

Data set [2] deals with P388 mouse leukemia cells. The note with it: 92 h. The procedure, abridged: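 Peptide stocks diluted 250× in growth medium; P388 cells 1 × 10^4 cells/mL final; 37 °C, 5% CO2, 92 h. WST-1 + 1-methoxy PMS, 4 h, A415. Output: % viability.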
Data set [3] concerns Streptococcus pyogenes SSI-9. Put plainly: Antibacterial activity assay of bead-derived peptides (three concentrations). The conditions noted are these: S. pyogenes, bead-derived peptide solution, three concentrations. It counts as cell-based. More on the design: key: +++: inhibition by the 640-fold diluted peptide solution; ++: inhibition by the 160-fold diluted solution; +: inhibition by the 40-fold diluted solution; -: no inhibition. The method in brief: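 First, each peptide stock was diluted 4- and 16-fold in DMSO; next, the three solutions were mixed with S. pyogenes SSI-9 suspension (2 × 10^5 CFU) in cation-adjusted Mueller Hinton Broth plus 5% laked horse blood; finally, plates stood 18 h at 37 °C before checking for grown-cell precipitation.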

Where a SMILES comes first, the peptide text is derived from it. [ ]: non-standard residue; d: D form. The star is where a group is joined. NHCH2CH2OH = OCCN*; For = O=C*

For the compound `CC(C)C[C@@H](NC(=O)[C@H](C)NC(=O)[C@H](NC(=O)[C@H](C)NC(=O)CNC(=O)[C@@H](NC=O)C(C)C)[C@H](C)O)C(=O)N[C@H](C(=O)N[C@H](CC(C)C)C(=O)N[C@@H](Cc1c[nH]c2ccccc12)C(=O)N[C@@H](C(=O)N[C@@H](Cc1c[nH]c2ccccc12)C(=O)N[C@@H](C(=O)N[C@@H](Cc1c[nH]c2ccccc12)C(=O)N[C@H](CC(C)C)C(=O)N[C@@H](Cc1c[nH]c2ccccc12)C(=O)NCCO)C(C)C)C(C)C)C(C)C` [compound 2242] (For-VGA[dT]A[dL]V[dL]W[dV]W[dV]W[dL]W-NHCH2CH2OH), the “H+/Na+ transport activity normalized against the value of 1 (1.00)” value (“H+/Na+ transport activity normalized” for short) in data set [1] is given as 1.15. The cell viability/% in data set [2] was found to be 100.0%. In data set [3], the antibacterial activity result is given as “-”.
With `CC(C)C[C@@H](NC(=O)[C@H](C)NC(=O)CNC(=O)[C@@H](NC=O)C(C)C)C(=O)N[C@@H](C)C(=O)N[C@H](CC(C)C)C(=O)N[C@H](C(=O)N[C@H](CC(C)C)C(=O)N[C@@H](Cc1c[nH]c2ccccc12)C(=O)N[C@H](CC(C)C)C(=O)N[C@@H](Cc1c[nH]c2ccccc12)C(=O)N[C@@H](C(=O)N[C@@H](Cc1c[nH]c2ccccc12)C(=O)N[C@H](CC(C)C)C(=O)N[C@@H](Cc1c[nH]c2ccccc12)C(=O)NCCO)[C@H](C)O)C(C)C` [compound 2283] (For-VGA[dL]A[dL]V[dL]W[dL]W[dT]W[dL]W-NHCH2CH2OH), in data set [1], the “H+/Na+ transport activity normalized” value is recorded as 1.07. This compound also showed a cell viability/% in data set [2] of 100.0%. The antibacterial activity entry in data set [3] was “-”.
For `CNC(=O)C[C@@H](NC(=O)[C@@H](NC(=O)[C@@H](CC(C)C)NC(=O)[C@H](C)NC(=O)[C@@H](CC(C)C)NC(=O)[C@H](C)NC(=O)CNC(=O)[C@@H](NC=O)C(C)C)C(C)C)C(=O)N[C@@H](Cc1c[nH]c2ccccc12)C(=O)N[C@H](CC(C)C)C(=O)N[C@@H](Cc1c[nH]c2ccccc12)C(=O)N[C@H](CC(C)C)C(=O)N[C@@H](Cc1c[nH]c2ccccc12)C(=O)N[C@H](CC(C)C)C(=O)N[C@@H](Cc1c[nH]c2ccccc12)C(=O)NCCO` [compound 2444] (For-VGA[dL]A[dL]V[dD](NHMe)W[dL]W[dL]W[dL]W-NHCH2CH2OH), in that order: 1.32, 100.0% and “-”.
On to `CNC(=O)C[C@@H](NC(=O)[C@H](Cc1c[nH]c2ccccc12)NC(=O)[C@@H](CC(C)C)NC(=O)[C@H](Cc1c[nH]c2ccccc12)NC(=O)[C@H](NC(=O)[C@H](Cc1c[nH]c2ccccc12)NC(=O)[C@@H](CC(C)C)NC(=O)[C@@H](NC(=O)[C@H](NC(=O)[C@H](C)NC(=O)[C@H](NC(=O)[C@H](C)NC(=O)CNC(=O)[C@@H](NC=O)C(C)C)C(C)C)C(C)C)C(C)C)C(C)C)C(=O)N[C@@H](Cc1c[nH]c2ccccc12)C(=O)NCCO` [compound 2526] (For-VGA[dV]A[dV]V[dL]W[dV]W[dL]W[dD](NHMe)W-NHCH2CH2OH), for which the “H+/Na+ transport activity normalized” value in data set [1] was determined as 1.02. This compound also displayed a cell viability/% in data set [2] of 100.0%. Moreover, the antibacterial activity entry in data set [3] is reported as “-”.
For `CC(C)C[C@@H](NC(=O)[C@H](Cc1c[nH]c2ccccc12)NC(=O)[C@H](NC(=O)[C@H](Cc1c[nH]c2ccccc12)NC(=O)[C@H](NC(=O)[C@H](Cc1c[nH]c2ccccc12)NC(=O)[C@@H](CC(C)C)NC(=O)[C@@H](NC(=O)[C@H](NC(=O)[C@H](C)NC(=O)[C@H](NC(=O)[C@H](C)NC(=O)CNC(=O)[C@@H](NC=O)C(C)C)[C@H](C)O)C(C)C)C(C)C)C(C)C)C(C)C)C(=O)N[C@@H](Cc1c[nH]c2ccccc12)C(=O)NCCO` [compound 2532] (For-VGA[dT]A[dV]V[dL]W[dV]W[dV]W[dL]W-NHCH2CH2OH), in that order: 1.22, 100.0% and “-”.
For `CC(C)C[C@@H](NC(=O)[C@H](Cc1c[nH]c2ccccc12)NC(=O)[C@H](NC(=O)[C@H](Cc1c[nH]c2ccccc12)NC(=O)[C@@H](CC(C)C)NC(=O)[C@@H](NC(=O)[C@H](NC(=O)[C@H](C)NC(=O)[C@H](NC(=O)[C@H](C)NC(=O)CNC(=O)[C@@H](NC=O)C(C)C)C(C)C)C(C)C)C(C)C)C(C)C)C(=O)N[C@@H](Cc1c[nH]c2ccccc12)C(=O)N[C@@H](C(=O)N[C@@H](Cc1c[nH]c2ccccc12)C(=O)NCCO)C(C)C` [compound 2554] (For-VGA[dV]A[dV]V[dL]W[dV]W[dL]W[dV]W-NHCH2CH2OH), in that order: 1.06, 9.2% and “++”.
Consider `CC(C)C[C@@H](NC(=O)[C@H](Cc1c[nH]c2ccccc12)NC(=O)[C@H](NC(=O)[C@H](Cc1c[nH]c2ccccc12)NC(=O)[C@H](NC(=O)[C@H](Cc1c[nH]c2ccccc12)NC(=O)[C@@H](CC(C)C)NC(=O)[C@@H](NC(=O)[C@H](NC(=O)[C@H](C)NC(=O)[C@H](NC(=O)[C@H](C)NC(=O)CNC(=O)[C@@H](NC=O)C(C)C)C(C)C)C(C)C)C(C)C)C(C)C)[C@H](C)O)C(=O)N[C@@H](Cc1c[nH]c2ccccc12)C(=O)NCCO` [compound 2580] (For-VGA[dV]A[dV]V[dL]W[dV]W[dT]W[dL]W-NHCH2CH2OH), for which the “H+/Na+ transport activity normalized” value in data set [1] amounted to 1.00. In data set [2], this compound registered a cell viability/% of 100.0%. Moreover, the antibacterial activity entry in data set [3] is reported as “-”.
Consider `CC(C)C[C@@H](NC(=O)[C@H](C)NC(=O)CNC(=O)[C@@H](NC=O)C(C)C)C(=O)N[C@@H](C)C(=O)N[C@H](CC(C)C)C(=O)N[C@H](C(=O)N[C@H](CC(C)C)C(=O)N[C@@H](Cc1c[nH]c2ccccc12)C(=O)N[C@H](CC(C)C)C(=O)N[C@@H](Cc1c[nH]c2ccccc12)C(=O)N[C@@H](C(=O)N[C@@H](Cc1c[nH]c2ccccc12)C(=O)N[C@@H](C(=O)N[C@@H](Cc1c[nH]c2ccccc12)C(=O)NCCO)C(C)C)C(C)C)C(C)C` [compound 2718] (For-VGA[dL]A[dL]V[dL]W[dL]W[dV]W[dV]W-NHCH2CH2OH), for which the “H+/Na+ transport activity normalized” value in data set [1] was 1.11. The compound further had a cell viability/% in data set [2] of 0.3%. Moreover, the antibacterial activity result in data set [3] is reported as “+”.
For the compound `CNC(=O)C[C@@H](NC(=O)[C@H](Cc1c[nH]c2ccccc12)NC(=O)[C@H](NC(=O)[C@H](Cc1c[nH]c2ccccc12)NC(=O)[C@@H](CC(C)C)NC(=O)[C@H](Cc1c[nH]c2ccccc12)NC(=O)[C@@H](CC(C)C)NC(=O)[C@@H](NC(=O)[C@@H](CC(C)C)NC(=O)[C@H](C)NC(=O)[C@@H](CC(C)C)NC(=O)[C@H](C)NC(=O)CNC(=O)[C@@H](NC=O)C(C)C)C(C)C)C(C)C)C(=O)N[C@@H](Cc1c[nH]c2ccccc12)C(=O)NCCO` [compound 2764] (For-VGA[dL]A[dL]V[dL]W[dL]W[dV]W[dD](NHMe)W-NHCH2CH2OH), in data set [1], the “H+/Na+ transport activity normalized” value amounted to 1.12. In data set [2], this compound had a cell viability/% of 75.7%. In addition, the antibacterial activity entry in data set [3] is “-”.
Consider `CC(C)C[C@@H](NC(=O)[C@H](C)NC(=O)[C@H](NC(=O)[C@H](C)NC(=O)CNC(=O)[C@@H](NC=O)C(C)C)C(C)C)C(=O)N[C@H](C(=O)N[C@H](CC(C)C)C(=O)N[C@@H](Cc1c[nH]c2ccccc12)C(=O)N[C@@H](C(=O)N[C@@H](Cc1c[nH]c2ccccc12)C(=O)N[C@@H](C(=O)N[C@@H](Cc1c[nH]c2ccccc12)C(=O)N[C@@H](C(=O)N[C@@H](Cc1c[nH]c2ccccc12)C(=O)NCCO)C(C)C)C(C)C)C(C)C)C(C)C` [compound 2832] (For-VGA[dV]A[dL]V[dL]W[dV]W[dV]W[dV]W-NHCH2CH2OH), for which the “H+/Na+ transport activity normalized” value in data set [1] worked out at 1.23. The cell viability/% in data set [2] is given as 17.7%. Moreover, in data set [3], the antibacterial activity entry was “+”.
As to `CNC(=O)C[C@@H](NC(=O)[C@@H](NC(=O)[C@H](NC(=O)[C@H](C)NC(=O)[C@@H](CC(C)C)NC(=O)[C@H](C)NC(=O)CNC(=O)[C@@H](NC=O)C(C)C)C(C)C)C(C)C)C(=O)N[C@@H](Cc1c[nH]c2ccccc12)C(=O)N[C@H](CC(C)C)C(=O)N[C@@H](Cc1c[nH]c2ccccc12)C(=O)N[C@@H](C(=O)N[C@@H](Cc1c[nH]c2ccccc12)C(=O)N[C@H](CC(C)C)C(=O)N[C@@H](Cc1c[nH]c2ccccc12)C(=O)NCCO)C(C)C` [compound 2881] (For-VGA[dL]A[dV]V[dD](NHMe)W[dL]W[dV]W[dL]W-NHCH2CH2OH), the “H+/Na+ transport activity normalized” value in data set [1] came to 1.16. In addition, in data set [2], the cell viability/% was found to be 100.0%. Further, the antibacterial activity result in data set [3] is given as “-”.
For `CC(C)C[C@@H](NC(=O)[C@H](C)NC(=O)CNC(=O)[C@@H](NC=O)C(C)C)C(=O)N[C@@H](C)C(=O)N[C@H](CC(C)C)C(=O)N[C@H](C(=O)N[C@@H](C(=O)N[C@@H](Cc1c[nH]c2ccccc12)C(=O)N[C@@H](C(=O)N[C@@H](Cc1c[nH]c2ccccc12)C(=O)N[C@@H](C(=O)N[C@@H](Cc1c[nH]c2ccccc12)C(=O)N[C@@H](C(=O)N[C@@H](Cc1c[nH]c2ccccc12)C(=O)NCCO)C(C)C)[C@H](C)O)C(C)C)C(C)C)C(C)C` [compound 2887] (For-VGA[dL]A[dL]V[dV]W[dV]W[dT]W[dV]W-NHCH2CH2OH), in that order: 1.01, 99.0% and “-”.
